# Laboratory results from patent US11484512B2, “Nanoparticles formed of a polymer and terbinafine” (Blueberry Therapeutics Limited, priority 2017, dated 2022).
# Read-outs that look alike come from different tables or passages of the source.
# How the values were obtained:
# [1] = tested on: Trichophron mentagrophytes; settings: cited from earlier work
# Trichophyton rubrum = settings: 72 strains tested; cited from earlier work
# [2] = tested on: Trichophyton interdigitale; settings: 11 strains tested; cited from earlier work
# [3] = Franz cell nail penetration, single dose (constant exposure); format: in vitro ADME, human
# Procedure: Nail clippings were soaked in water overnight at 30° C. and dried briefly. A 3 mm diameter punch was used to take disc biopsies of the nail clippings. Each nail disc was added to a Franz cell and an upper chamber of the cell attached. 40 μl of the following formulations was added to the upper chambers: 0.3 mg/ml PHMB+0.1 mg/ml terbinafine; or 10 mg/ml terbinafine. Lower collection chambers of the Franz cells were filled with water (approximately 600 μl) and the hole in the base of the sample chamber also filled with ddH2O to prevent bubbles forming beneath the nail. The upper sample chamber was carefully placed into the collection chamber ensuring not to introduce any air bubbles. Excess liquid from the collection chamber was expelled at this point leaving a final volume of liquid in the lower chamber of 500 μl. […] The nail discs from the Franz cell were also analysed for the presence of terbinafine as follows: the remaining test sample was removed from the upper sample chamber and discarded and the sample chamber washed 5 times with 100 μl ddH2O, with each wash being discarded, in order to remove any residual test solution remaining in the sample chamber. […] After 7 days, samples from the underside of the nail (ethanol washes) were collected and analysed by LC-MS/MS. […] Levels of terbinafine were quantified against drug standards. […]
# T. mentagrophytes = test: Trychophyton mentagrophytes anti-fungal paper disc lawn assay; format: cell-based; settings: 5 days incubation
# Procedure: FIGS. 6A-6E are photographic images of yeast extract peptone dextrose (YEPD) agar plates with Trychophyton mentagrophytes after incubation for 4 days at 30° C. […] 40 μl of double distilled water or terbinafine solution of varying concentration was spotted onto each paper disc. The concentration of the terbinafine solutions used were: 0 μg/ml (control, FIG. 6A), 0.06 μg/ml (FIG. 6B), 0.6 μg/ml (FIG. 6C), 6.00 μg/ml (FIG. 6D) and 60.0 μg/ml (FIG. 6E); FIGS. 7A and 7B are photographic images of YEPD plates assessing the efficacy of BB2603 (terbinafine and PHMB nanoparticles) and terbinafine samples passing through healthy human nail against Trychophyton mentagrophytes A lawn of Trychophyton mentagrophytes was spread onto YEPD agar plates supplemented with 50 μg/ml chloramphenicol. The aqueous samples from the Franz cell collection chamber following 7 days treatment of healthy human nails with either 0.1 mg/ml terbinafine (FIG. 7A) or BB2603 (FIG. 7B) were spotted onto 10 mm paper discs. The discs were placed in the middle of the Trychophyton plates, which were then incubated at 30° C. for 5 days to allow the fungi to grow. […]
# [4] = cited from earlier work
# Trichophron verrucosum = settings: 17 strains tested; cited from earlier work
# Microsporum species = settings: 25 strains tested; cited from earlier work
# onychomycosis = settings: following 3-6 months of dosing, oral; cited from earlier work
# Epidermophyton floccosum = settings: 42 strains tested; cited from earlier work
# Trichophyton species = settings: 27 strains tested; cited from earlier work
# Microsporum canis = settings: 49 strains tested; cited from earlier work
# Trichophyron terestre = settings: 1 strain tested; cited from earlier work
compound,measurement,setting,value
CN(C/C=C/C#CC(C)(C)C)Cc1cccc2ccccc12 [terbinafine],MIC range,[1]; 32 strains tested,1 to 6 ng/mL
same,previously reported MIC,[1]; liquid MIC assay,6 ng/mL
same,MIC range,Trichophyton rubrum,1 to 38 ng/mL
same,MIC range,[2],2 to 28 ng/mL
same,concentration of terbinafine in ethanol washes of the underside of the nail,"[3]; 0.1 mg/ml, 30% (v/v) ethanol, 7 days, single dose, BB2603 value is median",< 0.1 ng/mL
same,median concentration of drug in dissolved nails,"[3]; after 7 days, FIGS. 4 and 5A-5B",approximately 0.5 mg/g
same,MIC,"T. mentagrophytes; Trichophyton mentagrophytes, 120 h, 30° C.",600 ng/mL
same,zone of clearance with Franz cell aqueous sample passed through nail,T. mentagrophytes; collection chamber sample after 7 days nail treatment,no effect
same,concentration in nails following oral dosing,[4]; after 3 weeks,about 0.25 μg/g
same,concentration in nails following oral dosing,[4]; after 18 months,0.55 µg/g
same,concentration in nails following oral dosing,[4]; after 7 days treatment,0.1 µg/g
same,MIC range,Trichophron verrucosum,1 to 6 ng/mL
same,MIC range,Microsporum species,2 to 70 ng/mL
same,cure,onychomycosis,> 80%
same,MIC range,Epidermophyton floccosum,1 to 47 ng/mL
same,MIC range,Trichophyton species,≤60 ng/mL
same,MIC range,Microsporum canis,6 to 80 ng/mL
same,MIC range,Trichophyron terestre,2 ng/mL
